Experimental data from ChEMBL document CHEMBL4842313, “Combating multi-drug resistant malaria parasite by inhibiting falcipain-2 and heme-polymerization: Artemisinin-peptidyl vinyl phosphonate hybrid molecules as new antimalarials” (Eur J Med Chem, 2021).
Calls of active or inactive are those of the source. The rule behind the calls is not given here.

Experiments:
[1] = target: T1, Falcipain 2 (Plasmodium falciparum, UniProt Q9N6S8); assay: Inhibition of recombinant Plasmodium falciparum falcipain-2 expressed in Escherichia coli M15 assessed as reduction in free AMC release using Z-FR-AMC as a substrate measured over 30 mins by fluorometric assay
T1 sequence (Q9N6S8 whole entry): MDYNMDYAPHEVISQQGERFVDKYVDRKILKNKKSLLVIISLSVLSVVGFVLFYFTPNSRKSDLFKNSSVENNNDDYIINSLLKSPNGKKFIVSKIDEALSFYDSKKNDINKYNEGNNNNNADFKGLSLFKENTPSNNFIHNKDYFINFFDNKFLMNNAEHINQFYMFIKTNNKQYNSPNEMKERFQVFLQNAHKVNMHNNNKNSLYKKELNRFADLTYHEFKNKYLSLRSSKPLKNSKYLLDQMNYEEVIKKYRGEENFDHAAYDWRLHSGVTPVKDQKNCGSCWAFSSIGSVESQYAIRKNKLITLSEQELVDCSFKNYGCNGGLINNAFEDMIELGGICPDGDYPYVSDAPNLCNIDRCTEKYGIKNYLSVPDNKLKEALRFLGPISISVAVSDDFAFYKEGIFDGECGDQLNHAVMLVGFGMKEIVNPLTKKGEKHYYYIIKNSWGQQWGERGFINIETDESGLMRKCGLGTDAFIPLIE

[2] = target: T1, Falcipain 2; assay: Inhibition of recombinant Plasmodium falciparum falcipain-2 expressed in Escherichia coli M15 assessed as reduction in free AMC release using Z-FR-AMC as a substrate measured over 30 mins by Cheng-prusoff equation analysis
[3] = system: A549; assay: Cytotoxicity against human A549 cells assessed as reduction in cell viability measured after 24 hrs by WST-1 assay; type: cell-based; details: A549, 24 h
[4] = system: Plasmodium falciparum; assay: Antimalarial activity against Plasmodium falciparum 3D7 assessed as parasite growth inhibition incubated for 48 hrs by SYBR green DNA fluorescent dye-binding assay; type: functional, organism-based; details: 3D7, 48 h
[5] = system: Plasmodium falciparum; assay: Antimalarial activity against asexual blood stage of Plasmodium falciparum assessed as abnormalities in food vacuole observed upto 60 hrs post invasion; type: functional, organism-based; details: time hrs <=60
[6] = target: T2, Heme ligase (Plasmodium falciparum (isolate 3D7)) (UniProt Q8IL04); assay: Inhibition of recombinant Plasmodium falciparum heme detoxification protein expressed in Escherichia coli M15 assessed as reduction in hemozoin formation using heme as substrate measured after 3 hrs relative to control; details: concentration not given here
T2 sequence (whole entry): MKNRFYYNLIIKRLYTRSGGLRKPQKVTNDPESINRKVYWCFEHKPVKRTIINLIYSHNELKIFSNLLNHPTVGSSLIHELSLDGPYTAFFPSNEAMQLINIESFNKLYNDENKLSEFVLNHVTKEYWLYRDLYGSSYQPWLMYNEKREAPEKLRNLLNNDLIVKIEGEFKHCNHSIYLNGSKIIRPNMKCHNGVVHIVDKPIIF

[7] = system: Plasmodium falciparum; assay: Antimalarial activity against chloroquine and pyrimethamine-resistant Plasmodium falciparum 7G8 assessed as parasite growth inhibition incubated for 48 hrs by SYBR green DNA fluorescent dye-binding assay; type: functional, organism-based; details: 7G8, 48 h
[8] = system: Plasmodium falciparum; assay: Antimalarial activity against chloroquine, pyrimethamine and mefloquine-resistant Plasmodium falciparum Dd2 assessed as parasite growth inhibition incubated for 48 hrs by SYBR green DNA fluorescent dye-binding assay; type: functional, organism-based; details: Dd2, 48 h
[9] = system: Plasmodium falciparum; assay: Antimalarial activity against asexual blood stage of Plasmodium falciparum assessed as inhibition of mature schizonts development at EC50 observed at 48 hrs post invasion; type: functional, organism-based
[10] = system: Cytochrome P450; assay: Inhibition of CYP450 (unknown origin); type: ADME, protein assay; details: human
[11] = Drug degradation in human plasma; type: ADME, cell-free
[12] = system: Plasmodium falciparum; assay: Antimalarial activity against laboratory adapted artemisinin-resistant Plasmodium falciparum RT4974 assessed as inhibition of the survival of ring-stage parasite measured after 66 hrs by ring survival assay; type: functional, organism-based
[13] = system: Plasmodium berghei; assay: Antimalarial activity against blood stage of Plasmodium berghei infected in BALB/c mouse assessed as parasite clearance at 12.5 mg/kg, ip administered once daily for 4 consecutive days measured on day 10 by Giemsa staining based assay (reference value: 0%); type: functional; details: time 10 day
[14] = system: Plasmodium berghei; assay: Antimalarial activity against blood stage of Plasmodium berghei infected in BALB/c mouse assessed as mouse survival time at 12.5 mg/kg, ip administered once daily for 4 consecutive days (reference value: 12 to 15 days); type: functional; details: time 4 day
[15] = system: Plasmodium falciparum; assay: Antimalarial activity against asexual blood stage of Plasmodium falciparum assessed as darkly stained dead parasites at EC50 observed at 60 hrs post invasion; type: functional, organism-based
[16] = system: Plasmodium berghei; assay: Antimalarial activity against blood stage of Plasmodium berghei infected in BALB/c mouse assessed as suppression of parasite growth at 12.5 mg/kg, ip administered once daily for 4 consecutive days measured on day 5 by Giemsa staining based assay; type: functional, organism-based; details: time 5.0 day
[17] = system: Plasmodium berghei; assay: Antimalarial activity against blood stage of Plasmodium berghei infected in BALB/c mouse assessed as suppression of parasite growth at 12.5 mg/kg, ip administered once daily for 4 consecutive days measured on day 6 by Giemsa staining based assay; type: functional, organism-based; details: time 6.0 day

Structure (SMILES)	IC50 [1] [nM]	Ki [2]	EC50 [4] [nM]	other results
COC(=O)[C@H](Cc1ccccc1)NC(=O)[C@@H]1C[C@@H](O[C@H]2O[C@@H]3O[C@@]4(C)CC[C@H]5[C@H](C)CC[C@@H]([C@H]2C)[C@@]35OO4)CN1C(=O)OCc1ccccc1	> 100000	Not Active	–	–
CCOP(=O)(/C=C/C(NC(=O)[C@@H]1C[C@@H](O[C@H]2O[C@@H]3O[C@@]4(C)CC[C@H]5[C@H](C)CC[C@@H]([C@H]2C)[C@@]35OO4)CN1C(=O)OCc1ccccc1)c1ccccc1)OCC (stereo partly drawn)	> 100000	Not Active	–	–
C[C@H]1[C@@H](O)O[C@@H]2O[C@@]3(C)CC[C@H]4[C@H](C)CC[C@@H]1[C@@]24OO3 [ARTENIMOL]	> 100000	Not Active	4.97	EC50 [3]: > 25000 nM
CCOP(=O)(/C=C/[C@H](NC(=O)[C@H](CC(C)C)NC(=O)[C@@H]1C[C@@H](O[C@H]2O[C@@H]3O[C@@]4(C)CC[C@H]5[C@H](C)CC[C@@H]([C@H]2C)[C@@]35OO4)CN1C(=O)OCc1ccccc1)c1ccccc1)OCC	–	Not Active	6.12	–
CCOP(=O)(/C=C/C(NC(=O)[C@H](CC(C)C)NC(=O)[C@H](CO[C@H]1O[C@@H]2O[C@@]3(C)CC[C@H]4[C@H](C)CC[C@@H]([C@H]1C)[C@@]24OO3)NC(=O)OCc1ccccc1)c1ccccc1)OCC (stereo partly drawn)	–	–	3.3	Activity [5]: Active; EC50 [3]: 3820 nM; inhibition [6]: 60%; EC50 [7]: 0.23 nM; EC50 [8]: 3.5 nM; Activity [9]: Active; inhibition (INH) [10]: Active; Stabilty [11]: Unstable; Activity [12]: Active; Activity [13]: 100%; Survival [14]: >60 days; Activity [15]: Active; Activity [16]: inactive; Activity [17]: Active
CCOP(=O)(/C=C/C(NC(=O)[C@H](Cc1ccccc1)NC(=O)[C@@H]1C[C@@H](O[C@H]2O[C@@H]3O[C@@]4(C)CC[C@H]5[C@H](C)CC[C@@H]([C@H]2C)[C@@]35OO4)CN1C(=O)OCc1ccccc1)c1ccccc1)OCC (stereo partly drawn)	> 100000	Not Active	–	–
COC(=O)[C@H](Cc1ccccc1)NC(=O)[C@H](CO[C@H]1O[C@@H]2O[C@@]3(C)CC[C@H]4[C@H](C)CC[C@@H]([C@H]1C)[C@@]24OO3)NC(=O)OCc1ccccc1	> 100000	Not Active	–	–
C[C@@H]1CC[C@H]2[C@@H](C)C(=O)O[C@@H]3O[C@@]4(C)CC[C@@H]1[C@]32OO4 [ARTEMISININ]	–	–	27	EC50 [7]: 18 nM; EC50 [8]: 15 nM; Activity [13]: 0%; Survival [14]: 15 days
CCOP(=O)(/C=C/[C@@H](NC(=O)[C@H](CC(C)C)NC(=O)[C@@H]1C[C@@H](O[C@H]2O[C@@H]3O[C@@]4(C)CC[C@H]5[C@H](C)CC[C@@H]([C@H]2C)[C@@]35OO4)CN1C(=O)OCc1ccccc1)c1ccccc1)OCC	–	–	1.04	–
COC(=O)[C@H](CC(C)C)NC(=O)[C@H](CO[C@H]1O[C@@H]2O[C@@]3(C)CC[C@H]4[C@H](C)CC[C@@H]([C@H]1C)[C@@]24OO3)NC(=O)OCc1ccccc1	> 100000	Not Active	–	–
COC(=O)[C@@H]1C[C@@H](O[C@H]2O[C@@H]3O[C@@]4(C)CC[C@H]5[C@H](C)CC[C@@H]([C@H]2C)[C@@]35OO4)CN1C(=O)OCc1ccccc1	> 100000	Not Active	–	–
CCOP(=O)(/C=C/C(NC(=O)[C@H](CC(C)C)NC(=O)[C@@H]1C[C@@H](O[C@H]2O[C@@H]3O[C@@]4(C)CC[C@H]5[C@H](C)CC[C@@H]([C@H]2C)[C@@]35OO4)CN1C(=O)OCc1ccccc1)c1ccccc1)OCC (stereo partly drawn)	–	–	2.57	Activity [5]: Active; EC50 [3]: 1280 nM; inhibition [6]: 90%; EC50 [7]: 1.2 nM; EC50 [8]: 5.5 nM; Activity [9]: Active; inhibition (INH) [10]: Active; Stabilty [11]: Unstable; Activity [12]: Active; Activity [13]: 100%; Survival [14]: >60 days; Activity [15]: Active; Activity [16]: inactive; Activity [17]: Active
CCOP(=O)(/C=C/[C@@H](NC(=O)[C@H](CC(C)C)NC(=O)[C@H](CO[C@H]1O[C@@H]2O[C@@]3(C)CC[C@H]4[C@H](C)CC[C@@H]([C@H]1C)[C@@]24OO3)NC(=O)OCc1ccccc1)c1ccccc1)OCC	–	–	10.9	–
CCOP(=O)(/C=C/C(NC(=O)[C@H](CO[C@H]1O[C@@H]2O[C@@]3(C)CC[C@H]4[C@H](C)CC[C@@H]([C@H]1C)[C@@]24OO3)NC(=O)OCc1ccccc1)c1ccccc1)OCC (stereo partly drawn)	> 100000	Not Active	–	–
COC(=O)[C@H](CO[C@H]1O[C@@H]2O[C@@]3(C)CC[C@H]4[C@H](C)CC[C@@H]([C@H]1C)[C@@]24OO3)NC(=O)OCc1ccccc1	> 100000	Not Active	–	–
COC(=O)[C@H](CC(C)C)NC(=O)[C@@H]1C[C@@H](O[C@H]2O[C@@H]3O[C@@]4(C)CC[C@H]5[C@H](C)CC[C@@H]([C@H]2C)[C@@]35OO4)CN1C(=O)OCc1ccccc1	> 100000	Not Active	–	–
CCOP(=O)(/C=C/C(N)c1ccccc1)OCC (stereo not drawn)	> 25000	Not Active	> 100000	EC50 [3]: > 30000 nM
CCOP(=O)(/C=C/[C@H](NC(=O)[C@H](Cc1ccccc1)NC(=O)[C@H](CO[C@H]1O[C@@H]2O[C@@]3(C)CC[C@H]4[C@H](C)CC[C@@H]([C@H]1C)[C@@]24OO3)NC(=O)OCc1ccccc1)c1ccccc1)OCC	–	–	2.03	–
CCOP(=O)(/C=C/[C@H](NC(=O)[C@H](CC(C)C)NC(=O)[C@H](CO[C@H]1O[C@@H]2O[C@@]3(C)CC[C@H]4[C@H](C)CC[C@@H]([C@H]1C)[C@@]24OO3)NC(=O)OCc1ccccc1)c1ccccc1)OCC	–	–	16.7	–
CCOP(=O)(/C=C/[C@@H](NC(=O)[C@H](Cc1ccccc1)NC(=O)[C@H](CO[C@H]1O[C@@H]2O[C@@]3(C)CC[C@H]4[C@H](C)CC[C@@H]([C@H]1C)[C@@]24OO3)NC(=O)OCc1ccccc1)c1ccccc1)OCC	–	–	0.95	–
